Experimental findings from US9139566B2, “Fluorine-18 and carbon-11 labeled radioligands for positron emission tomography (PET) imaging for LRRK2” (Genentech, Inc., priority 2011, dated 2015) are described below.

As a reminder, the Ki is the equilibrium dissociation constant of an inhibitor or competing ligand from its target.

Chain of LRRK2 (Q5S007 whole entry): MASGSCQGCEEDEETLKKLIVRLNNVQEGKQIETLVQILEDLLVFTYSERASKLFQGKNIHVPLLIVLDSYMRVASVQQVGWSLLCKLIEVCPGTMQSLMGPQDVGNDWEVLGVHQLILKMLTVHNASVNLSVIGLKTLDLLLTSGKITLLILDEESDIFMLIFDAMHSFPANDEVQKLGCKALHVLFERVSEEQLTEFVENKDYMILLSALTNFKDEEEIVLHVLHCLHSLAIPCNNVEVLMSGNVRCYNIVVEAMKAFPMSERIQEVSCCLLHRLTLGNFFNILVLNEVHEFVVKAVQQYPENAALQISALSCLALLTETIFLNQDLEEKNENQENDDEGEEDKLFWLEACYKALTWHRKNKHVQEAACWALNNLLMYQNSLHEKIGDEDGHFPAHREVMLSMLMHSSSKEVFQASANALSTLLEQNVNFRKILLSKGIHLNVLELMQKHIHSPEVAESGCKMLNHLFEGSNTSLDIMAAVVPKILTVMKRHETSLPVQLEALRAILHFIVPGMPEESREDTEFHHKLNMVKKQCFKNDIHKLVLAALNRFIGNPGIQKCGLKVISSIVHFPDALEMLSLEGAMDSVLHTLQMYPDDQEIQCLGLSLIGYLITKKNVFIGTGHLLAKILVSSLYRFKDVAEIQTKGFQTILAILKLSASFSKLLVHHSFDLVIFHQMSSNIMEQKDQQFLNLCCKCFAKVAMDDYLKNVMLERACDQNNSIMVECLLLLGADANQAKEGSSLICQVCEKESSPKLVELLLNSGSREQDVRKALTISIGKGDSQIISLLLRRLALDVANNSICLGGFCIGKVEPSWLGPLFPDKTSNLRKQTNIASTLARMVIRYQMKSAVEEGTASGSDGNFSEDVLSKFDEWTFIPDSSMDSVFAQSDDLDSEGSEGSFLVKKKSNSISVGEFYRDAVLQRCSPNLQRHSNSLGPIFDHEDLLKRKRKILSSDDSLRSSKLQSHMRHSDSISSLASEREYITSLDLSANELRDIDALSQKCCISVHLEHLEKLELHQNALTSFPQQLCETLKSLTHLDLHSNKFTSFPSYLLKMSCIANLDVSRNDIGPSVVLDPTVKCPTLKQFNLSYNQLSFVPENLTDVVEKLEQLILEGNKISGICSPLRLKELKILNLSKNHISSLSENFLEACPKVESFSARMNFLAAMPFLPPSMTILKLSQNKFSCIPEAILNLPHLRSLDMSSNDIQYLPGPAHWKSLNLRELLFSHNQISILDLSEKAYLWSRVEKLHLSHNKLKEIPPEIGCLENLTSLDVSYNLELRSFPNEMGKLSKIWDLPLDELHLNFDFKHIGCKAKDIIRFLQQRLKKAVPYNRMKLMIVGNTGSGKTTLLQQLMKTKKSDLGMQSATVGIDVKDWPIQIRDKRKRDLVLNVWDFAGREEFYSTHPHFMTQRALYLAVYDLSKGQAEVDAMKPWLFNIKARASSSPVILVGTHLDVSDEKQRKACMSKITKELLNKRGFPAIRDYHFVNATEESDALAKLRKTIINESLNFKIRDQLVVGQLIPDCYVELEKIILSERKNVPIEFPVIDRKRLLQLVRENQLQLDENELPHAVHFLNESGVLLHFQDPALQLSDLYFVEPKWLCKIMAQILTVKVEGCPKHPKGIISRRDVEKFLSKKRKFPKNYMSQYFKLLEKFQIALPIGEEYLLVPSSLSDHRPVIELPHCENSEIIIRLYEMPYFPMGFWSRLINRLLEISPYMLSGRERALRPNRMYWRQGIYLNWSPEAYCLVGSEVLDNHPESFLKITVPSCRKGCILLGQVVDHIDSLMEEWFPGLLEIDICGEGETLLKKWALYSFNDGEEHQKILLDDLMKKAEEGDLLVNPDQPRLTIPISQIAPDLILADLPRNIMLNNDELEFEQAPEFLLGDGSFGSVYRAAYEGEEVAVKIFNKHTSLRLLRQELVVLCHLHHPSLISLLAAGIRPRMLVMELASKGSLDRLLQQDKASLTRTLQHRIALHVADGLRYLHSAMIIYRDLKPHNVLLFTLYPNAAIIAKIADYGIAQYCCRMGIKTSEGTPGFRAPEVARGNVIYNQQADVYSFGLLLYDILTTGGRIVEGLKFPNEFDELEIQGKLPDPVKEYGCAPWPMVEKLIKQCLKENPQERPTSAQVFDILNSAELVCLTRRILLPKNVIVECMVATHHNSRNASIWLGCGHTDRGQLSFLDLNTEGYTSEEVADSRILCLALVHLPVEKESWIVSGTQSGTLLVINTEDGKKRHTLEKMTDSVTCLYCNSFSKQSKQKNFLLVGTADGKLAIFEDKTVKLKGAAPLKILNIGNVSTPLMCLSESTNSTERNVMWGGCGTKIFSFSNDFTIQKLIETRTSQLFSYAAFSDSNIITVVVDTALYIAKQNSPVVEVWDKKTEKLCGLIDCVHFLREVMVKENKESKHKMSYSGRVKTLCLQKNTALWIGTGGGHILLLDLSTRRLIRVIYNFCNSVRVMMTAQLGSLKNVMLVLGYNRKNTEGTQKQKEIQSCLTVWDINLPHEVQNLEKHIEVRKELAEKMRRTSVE

The test addresses LRRK2 (Homo sapiens, UniProt Q5S007). Briefly: LRRK2 affinity (Ki). Type of test: binding. The settings on record: LRRK2 affinity (micromolar), Table 1.
As for `CNc1nc(Nc2cc(OC)c(C(=O)N3CCCCC3)cc2OCF)ncc1C(F)(F)F` [Compound 11, (5-(fluoromethoxy)-2-methoxy-4-(4-(methylamino)-5-(trifluoromethyl)pyrimidin-2-ylamino)phenyl)(piperidin-1-yl)methanone], affinity was put at a Ki of 1.6 nM.

As for `CNc1nc(Nc2cc(C)c(C(=O)N3CCOCC3)cc2OCCF)ncc1C(F)(F)F` [Compound 13, (5-(2-fluoroethoxy)-2-methyl-4-(4-(methylamino)-5-(trifluoromethyl)pyrimidin-2-ylamino)phenyl)(morpholino) methanone], the affinity, expressed as Ki, was 2.3 nM. This Ki and that of the compound before are within 1.5-fold of each other. In the case of `CNc1nc(Nc2cc(OC)c(C(=O)N3CCC(F)(F)C3)cc2OCCF)ncc1C(F)(F)F` [Compound 9, (3,3-difluoropyrrolidin-1-yl)(5-(2-fluoroethoxy)-2-methoxy-4-((4-(methylamino)-5-(trifluoromethyl)pyrimidin-2-yl)amino)phenyl)methanone], the Ki came to 1.5 nM. `CNc1nc(Nc2cc(F)c(C(=O)N3CCCC3)cc2OCF)ncc1C(F)(F)F` [Compound 22, (2-fluoro-5-(fluoromethoxy)-4-(4-(methylamino)-5-(trifluoromethyl)pyrimidin-2-ylamino)phenyl)(pyrrolidin-1-yl)methanone] registered a Ki of 6.5 nM. In turn, `COc1nc(Nc2ccc(S(C)(=O)=O)cc2OCCF)ncc1Cl` [Compound 26, 5-chloro-N-(2-(2-fluoroethoxy)-4-(methylsulfonyl)phenyl)-4-methoxypyrimidin-2-amine] yielded a Ki of 12 nM. The compound `CNc1nc(Nc2ccc(C(=O)N3CCOCC3)cc2OCCF)ncc1C(F)(F)F` [Compound 30, (3-(2-fluoroethoxy)-4-(4-(methylamino)-5-(trifluoromethyl)pyrimidin-2-ylamino)phenyl)(morpholino) methanone] came in with an inhibition constant (Ki) of 2.3 nM. `CCNc1nc(Nc2cc(OCF)c(C(=O)N3CCCC3)cc2Cl)ncc1C(F)(F)F` [Compound 5, (5-chloro-4-(4-(ethylamino)-5-(trifluoromethyl)pyrimidin-2-ylamino)-2-(fluoromethoxy)phenyl)(pyrrolidin-1-yl)methanone] came in with a Ki of 1.5 nM. Regarding `CCNc1nc(Nc2cc(OC)c(C(=O)N3CCC(F)(F)C3)cc2OC)ncc1C(F)(F)F` [Compound 8, (3,3-difluoropyrrolidin-1-yl)(4-(4-(ethylamino)-5-(trifluoromethyl)pyrimidin-2-ylamino)-2,5-dimethoxyphenyl)methanone], the affinity corresponds to a Ki of 1.1 nM. For `CNc1nc(Nc2cc(F)c(C(=O)N3CCOCC3)cc2OCCF)ncc1C(F)(F)F` [Compound 17, (2-fluoro-5-(2-fluoroethoxy)-4-(4-(methylamino)-5-(trifluoromethyl)pyrimidin-2-ylamino)phenyl)(morpholino) methanone], the affinity, expressed as Ki, was 3.5 nM. Compared with the last compound, the Ki is about 3.2-fold higher. On to `CNc1nc(Nc2cnn(C3CCN(CCF)CC3)c2C)ncc1C(F)(F)F` [Compound 31, N2-(1-(1-(2-fluoroethyl)piperidin-4-yl)-5-methyl-1H-pyrazol-4-yl)-N4-methyl-5-(trifluoromethyl)pyrimidine-2,4-diamine], for which the affinity corresponds to a Ki of 4.2 nM.

Turning to `CNc1nc(Nc2cc(C)c(C(=O)N3CCOCC3)cc2OCF)ncc1C(F)(F)F` [Compound 2, (5-(fluoromethoxy)-2-methyl-4-(4-(methylamino)-5-(trifluoromethyl)pyrimidin-2-ylamino)phenyl)(morpholino) methanone], the Ki was 1 nM.

`COc1nc(Nc2ccc(CN3CCOCC3)cc2OCCF)ncc1Cl` [Compound 25, 5-chloro-N-(2-(2-fluoroethoxy)-4-(morpholinomethyl)phenyl)-4-methoxypyrimidin-2-amine]: the inhibition constant (Ki) was 12 nM. The value for `COc1nc(Nc2ccc(C(=O)N3CCOCC3)cc2OCCF)ncc1Cl` [Compound 40, (4-((5-chloro-4-methoxypyrimidin-2-yl)amino)-3-(2-fluoroethoxy)phenyl)(morpholino) methanone] was 14 nM.

Compound `CNc1nc(Nc2cc(OC)c(C(=O)N3CCCC3)cc2OCF)ncc1C(F)(F)F` [Compound 14, (5-(fluoromethoxy)-2-methoxy-4-(4-(methylamino)-5-(trifluoromethyl)pyrimidin-2-ylamino)phenyl)(pyrrolidin-1-yl)methanone] showed an inhibition constant Ki of 3.2 nM. As to `CNc1nc(Nc2cnn(CCF)c2C)ncc1C(F)(F)F` [Compound 36, N2-(1-(2-fluoroethyl)-5-methyl-1H-pyrazol-4-yl)-N4-methyl-5-(trifluoromethyl)pyrimidine-2,4-diamine], affinity was put at a Ki of 1.8 nM. For the compound `COc1nc(Nc2ccc(C(=O)N3CCOCC3)cc2OCCF)ncc1Cl` [Compound 28, (4-(5-chloro-4-methoxypyrimidin-2-ylamino)-3-(2-fluoroethoxy)phenyl)(morpholino) methanone], the Ki amounted to 15 nM.

`CNc1nc(Nc2cc(OC)c(C(=O)N3CCCC3)cc2OCCF)ncc1C(F)(F)F` [Compound 20, (5-(2-fluoroethoxy)-2-methoxy-4-(4-(methylamino)-5-(trifluoromethyl)pyrimidin-2-ylamino)phenyl)(pyrrolidin-1-yl)methanone]: the affinity, expressed as Ki, was 4.7 nM. `COc1nc(Nc2cc(C)c(C(=O)N3CCCC3)cc2OCF)ncc1Cl` [Compound 24, (4-(5-chloro-4-methoxypyrimidin-2-ylamino)-5-(fluoromethoxy)-2-methylphenyl)(pyrrolidin-1-yl)methanone] showed an inhibition constant Ki of 11 nM. In turn, `CNc1nc(Nc2cn(CCF)nc2C)ncc1C(F)(F)F` [Compound 35, N2-(1-(2-fluoroethyl)-3-methyl-1H-pyrazol-4-yl)-N4-methyl-5-(trifluoromethyl)pyrimidine-2,4-diamine] gave a Ki of 1.1 nM. Compound `CNc1nc(Nc2ccc(S(C)(=O)=O)cc2OCCF)ncc1C(F)(F)F` [Compound 15, N2-(2-(2-fluoroethoxy)-4-(methylsulfonyl)phenyl)-N4-methyl-5-(trifluoromethyl)pyrimidine-2,4-diamine] had an inhibition constant Ki of 3.3 nM. Against the preceding compound, the Ki is about 3-fold higher. In turn, `CNc1nc(Nc2ccc(S(C)(=O)=O)cc2OCCF)ncc1Cl` [Compound 27, 5-chloro-N2-(2-(2-fluoroethoxy)-4-(methylsulfonyl)phenyl)-N4-methylpyrimidine-2,4-diamine] registered an inhibitory constant (Ki) of 12 nM. Against the preceding compound, the Ki is about 3.6-fold higher. `CNc1nc(Nc2ccc(CN3CCOCC3)cc2OCCF)ncc1C(F)(F)F` [Compound 21, N2-(2-(2-fluoroethoxy)-4-(morpholinomethyl)phenyl)-N4-methyl-5-(trifluoromethyl)pyrimidine-2,4-diamine] came in with an inhibition constant Ki of 6.6 nM. In turn, `CNc1nc(Nc2cc(F)c(CN3CCOCC3)cc2OCCF)ncc1C(F)(F)F` [Compound 18, N2-(5-fluoro-2-(2-fluoroethoxy)-4-(morpholinomethyl)phenyl)-N4-methyl-5-(trifluoromethyl)pyrimidine-2,4-diamine] yielded an inhibitory constant (Ki) of 3.7 nM. As for `CNc1nc(Nc2cn(C3CCN(CCF)CC3)nc2C)ncc1C(F)(F)F` [Compound 33, N2-(1-(1-(2-fluoroethyl)piperidin-4-yl)-3-methyl-1H-pyrazol-4-yl)-N4-methyl-5-(trifluoromethyl)pyrimidine-2,4-diamine], the inhibition constant (Ki) was determined as 25 nM. As for `O=C(c1cc(OCCF)c(Nc2ncc(C(F)(F)F)c(NC3CC3)n2)cc1F)N1CCOCC1` [Compound 1, (4-(4-(cyclopropylamino)-5-(trifluoromethyl)pyrimidin-2-ylamino)-2-fluoro-5-(2-fluoroethoxy)phenyl)(morpholino) methanone], the Ki worked out at 0.6 nM. Compared with the last compound, the Ki is about 42-fold lower. For `CNc1nc(Nc2cc(C)c(C(=O)N3CCCC3)cc2OCF)ncc1C(F)(F)F` [Compound 7, (5-(fluoromethoxy)-2-methyl-4-(4-(methylamino)-5-(trifluoromethyl)pyrimidin-2-ylamino)phenyl)(pyrrolidin-1-yl)methanone], the affinity corresponds to a Ki of 0.7 nM. The compound `[2H]C([2H])(F)C([2H])([2H])n1ncc(Nc2ncc(C(F)(F)F)c(NC)n2)c1C` [Compound 48, N2-(1-(2-fluoro-1,1,2,2-tetradeutero-ethyl)-5-methyl-1H-pyrazol-4-yl)-N4-methyl-5-(trifluoromethyl)pyrimidine-2,4-diamine] displayed an inhibition constant Ki of 2 nM. In the case of `CNc1nc(Nc2cnc(N3CCOCC3)cc2OCCF)ncc1C(F)(F)F` [Compound 29, N2-(4-(2-fluoroethoxy)-6-morpholinopyridin-3-yl)-N4-methyl-5-(trifluoromethyl)pyrimidine-2,4-diamine], the Ki was determined as 21 nM. In the case of `CCNc1nc(Nc2cc(OC)c(C(=O)N3CCC(F)(F)C3)cc2OCF)ncc1C(F)(F)F` [Compound 6, (3,3-difluoropyrrolidin-1-yl)(4-(4-(ethylamino)-5-(trifluoromethyl)pyrimidin-2-ylamino)-5-(fluoromethoxy)-2-methoxyphenyl)methanone], the Ki was found to be 0.4 nM. In the case of `CCNc1nc(Nc2cc(OCF)c(C(=O)N3CCCC3)cc2F)ncc1C(F)(F)F` [Compound 16, (4-(4-(ethylamino)-5-(trifluoromethyl)pyrimidin-2-ylamino)-5-fluoro-2-(fluoromethoxy)phenyl)(pyrrolidin-1-yl)methanone], the Ki came to 3.4 nM. `CNc1nc(Nc2ccc(C(=O)N3CCOCC3)cc2OC)ncc1C(F)(F)F` [Compound 38, (3-methoxy-4-(4-(methylamino)-5-(trifluoromethyl)pyrimidin-2-ylamino)phenyl)(morpholino) methanone]: the affinity corresponds to a Ki of 2.7 nM. This Ki and that of the compound before are within 1.5-fold of each other. Regarding `CCNc1nc(Nc2cc(F)c(CN3CCOCC3)cc2OCCF)ncc1C(F)(F)F` [Compound 10, N4-ethyl-N2-(5-fluoro-2-(2-fluoroethoxy)-4-(morpholinomethyl)phenyl)-5-(trifluoromethyl)pyrimidine-2,4-diamine], affinity was put at a Ki of 1.5 nM.

In turn, `COc1nc(Nc2cnn(C3CCN(CCF)CC3)c2C)ncc1Cl` [Compound 32, 5-chloro-N-(1-(1-(2-fluoroethyl)piperidin-4-yl)-5-methyl-1H-pyrazol-4-yl)-4-methoxypyrimidin-2-amine] showed a Ki of 21 nM. The value for `CCNc1nc(Nc2cc(F)c(C(=O)N3CCOCC3)cc2OCCF)ncc1C(F)(F)F` [Compound 12, (4-(4-(ethylamino)-5-(trifluoromethyl)pyrimidin-2-ylamino)-2-fluoro-5-(2-fluoroethoxy)phenyl)(morpholino) methanone] was 2 nM.
